The text below walks through data of patent US8501242B2, “Methods and compositions for treating neoplasia” (University of Florida Research Foundation, priority 2009, dated 2013).

The target in test [1] is human thymidylate synthase (Homo sapiens, UniProt P04818). Put plainly: spectrophotometric assay of human thymidylate synthase activity. Type of test: biochemical. Particulars: for Ki: Table 2, kinetic parameters of TS in presence of selected compounds. The procedure:
A spectrophotometric assay is used to test compounds for their inhibitory activity against human thymidylate synthase activity. This assay is a modification of the assay of Wahba, A. J., and Friedkin, M. (1961). Direct spectrophotometric evidence for the oxidation of tetrahydrofolate during the enzymatic synthesis of thymidylate (J. Biol. Chem. 236, PC11-12).
In the spectrophotometric assay, human thymidylate synthase is preincubated with deoxyuridine monophosphate (and inhibitors) in 96-well plates for 0-5 minutes at room temperature and fresh 5,10-methylene tetrahydrofolate (THF) is added to the mixture immediately before the reaction to yield a volume of 100 μl. 5,10-methylene tetrahydrofolate is prepared fresh prior to every experiment by dissolving THF in 0.26 M formaldehyde, 80 mM dithiothreitol, and 50 mM Tris HCI (pH 6.8/7.0). X-ray crystallography is then utilized to identify any binding site in human thymidylate synthase for an inhibitor and also to characterize its mechanism of action.
The 40 highest scoring compounds in the above-mentioned screening assay were obtained and tested for their abilities to inhibit the biochemical activity of human thymidylate synthase. Four compounds were inhibitory and preliminary studies show the enzyme mechanism to be non-competitive (i.e. through modulating or interfering with association among human thymidylate synthase monomers).

A further test concerns HT29. Put plainly: cell proliferation experiments, combination with 5-FU. Particulars: combination of CNX treatment with 5-FU versus 5FU alone. The class given is cell-based, human. From the text: (§1) The combination of certain compounds (e.g., CNX) with certain anti-cancer compounds (e.g., 5-FU) can produce synergistic anticancer effects.
Another test concerns HeLa. Described as above. Type of test: cell-based, human. Particulars: combination of CNX treatment with 5-FU versus 5FU alone.
Excerpt: as §1

human thymidylate synthase, sequence (P04818 whole entry): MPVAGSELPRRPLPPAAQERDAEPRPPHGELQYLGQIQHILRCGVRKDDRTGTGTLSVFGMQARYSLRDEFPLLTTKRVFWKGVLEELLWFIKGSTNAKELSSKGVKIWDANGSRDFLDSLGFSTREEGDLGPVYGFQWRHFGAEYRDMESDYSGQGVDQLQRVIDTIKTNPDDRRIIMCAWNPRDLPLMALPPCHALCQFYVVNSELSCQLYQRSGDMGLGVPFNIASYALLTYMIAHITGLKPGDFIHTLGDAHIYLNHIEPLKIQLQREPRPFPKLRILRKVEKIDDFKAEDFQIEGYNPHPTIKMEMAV

With `O=c1[nH]cc(F)c(=O)[nH]1` [5-FU, 5-fluorouracil, reference compound], in test [1], the inhibition constant (Ki) (commonly a dissociation constant, usually derived from enzyme kinetics or from competition with a known ligand) is 56.7 µM.

For the compound `O=P(O)(O)OCC(O)CO` (stereo not drawn) [NSC9231, 2,3-Dihydroxypropyl dihydrogen phosphate], in test [1], the Ki came out at 2.12 µM.

Consider `O=C(O)C(S)C(S)C(=O)O` (stereo not drawn) [NSC16867, 2,3-Dimercaptosuccinic acid], for which the inhibitory constant (Ki) in test [1] was 45.5 µM.

Consider `CCN(CC)S(=O)(=O)c1ccc(C(=O)O)cc1` [NSC49467, P-(Diethylsulfamoyl)benzoic acid], for which the Ki in test [1] is 177 µM.

With `O=C(O)Cn1cc(I)c(=O)c(I)c1` [NSC60718, (3,5-diiodo-4-oxo-1(4H)-pyridinyl)acetic acid], in test [1], the Ki is 29.8 µM.

For `CC(=O)NC(CS)C(=O)O` (stereo not drawn) [NSC111180, 2-acetamido-3-sulfanylpropanoic acid], in test [1], the Ki came out at 602 µM.

`CC(=O)Nc1c(I)cc(I)c(C(=O)O)c1I` [NSC141235, 3-(acetylamino)-2,4,6-triiodobenzoic acid.6-(methylamino)hexane-1,2,3,4,5-pentol]: the Ki in test [1] stood at 5.4 µM.

Take `CCn1nc(C(=O)O)c(=O)c2cc3c(cc21)OCO3` [NSC304467, 1-Ethyl-4-oxo-1,4-dihydro[1,3]dioxolo[4,5-g]cinnoline-3-carboxylic acid]: in test [1], the “enzyme mechanism of TS inhibition” value is recorded as “non-competitive”, the “inhibiting TS activity (in words)” value is recorded as “potent” and the Ki was 0.32 µM. Besides, the “inhibitory effect on cell proliferation” value in the test on HT29 is on record as “greater inhibitory effects than 5FU alone”. Besides, in the test on HeLa, the “inhibitory effect on cell proliferation” value was “greater inhibitory effects than 5FU alone”.
